Converted amounts (≈) assume the structure as drawn.
Key:
hFAP (M39-A757) = hFAP (M39-A757) (Homo sapiens (Human), UniProt Q12884); test: hFAP binding assay (surface plasmon resonance); conditions: SPR, 20° C.; for hFAP Binding assay k(off) / hFAP Binding assay k(on): single cycle kinetics; for Kd: n = 1 or geometric mean n = 2-4
[1] = target: Prolyl endopeptidase, Prolyl Oligopeptidase (hPREP) (Homo sapiens (Human), UniProt P48147); test: hPrep inhibition assay; type: biochemical; conditions: hPREP 0.6 nM, Z-Gly-Pro-amino-methylcoumarin 50 μM; read-out: PREP IC50
Procedure, shortened: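 Fluorogenic read-out (340 nm excitation, 460 nm emission) after 20 min at rt, using 50 μM final Z-Gly-Pro-aminomethylcoumarin and 0.6 nM final enzyme, following 15 min compound preincubation. Buffer pH 7.5 with glutathione and Triton X-100. IC50 via one-site model on % inhibition vs log concentration.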

FAP [2] = target: FAP (Mus musculus (Mouse), UniProt P97321); test: FAP plasma inhibition assay, mouse plasma; type: biochemical; conditions: mouse plasma diluted 1:67, Ala-Pro-AMC 75 μM
Description: (§1) This assay was adapted from the method described in Example 237 for detection of FAP target engagement enzyme activity in plasma. Plasma (anticoagulant K2EDTA) was used as the enzyme source: Human plasma (Pooled from AZ Biobank), Mouse plasma (AZ AST Biobank), and Cynomolgus plasma (BioIVT, #NHP00PLK2FNN, lot CYN222895). 384-Well black fluotrack PS plates (Greiner 781076) were used. 20 μL diluted plasma (Cynomolgus and Human plasma dilution 1:40, Mouse plasma dilution 1:67) in buffer (PBS, 0.1% BSA) was added to 0.6 μL compounds (in DMSO). Compounds were tested using 10 CR, 3 fold dilution series from 500 nM FAC. Two replicates for each assay point were run on the same plate. A fluorescence blank read was taken before substrate addition. […] Plates were incubated for 40 min at rt in the dark. […] IC50 values were determined by plotting % inhibition versus log compound concentration.

[3] = target: Fibroblast Activation Protein alpha (FAP) (Mus musculus (Mouse), UniProt P97321); test: in vivo
Description: The effect of test compound on FAP enzyme activity in mouse plasma was evaluated in an enzymatic assay using the Fibroblast Activation Protein alpha (FAP) specific fluorogenic substrate dipeptide-Coumarin, Ala-Pro-AMC, (ARI-3144).
Male C57Bl/6 mice (Charles River, Germany), 8 weeks of age, were single housed in a temperature-controlled room with a 12-hour light/dark cycle (06:00-18:00 light). The mice had ad libitum access to water and rodent chow diet (R70, Lactamin, Kimstad, Sweden), and were acclimated for 5 days upon arrival. After acclimation, all mice received a single oral dose of test compound (3 or 10 mg/kg). Blood samples for whole blood compound exposure measurements were taken at 0.25, 0.5, 1, 2, 4, 8 and 24 h post oral dosing. Samples were collected in EDTA capillary tubes (20 μL, K2E, REF 19.447) and were transferred to a 96-deep well plate (NUNC, Thermo Discher Scientific) and stored at −20° C. until further analyses were performed. Blood samples for plasma FAP enzyme activity measurements were taken at 0, 0.25, 0.5, 1, 2, 8 and 24 h post dosing. 25 μL of whole blood was collected in EDTA Microvette® CB 300 (K2E, REF 16.444.100) tubes, and were centrifuged at 4,000×g for 5 min. 10 μL of plasma was then transferred to PCR tubes and stored at −20° C. until further analysis was performed. All blood samples were taken by vena saphena puncture.
Recombinant human FAP (PB-17-1837, construct PL-17-0278, cd33-FAP (27-757)-6His, Mw85926 Da) was used as a standard for this assay. […] The plates were read on a Beckman Paradigm reader with excitation 360 nm and emission 465 nm. Fluorescence measurements were performed with kinetic read every 5 minutes for 60 min at room temperature. Data were analyzed in Excel (IDBS XLfit Add-In) using a Linear Regression (y=k*x+m) model to prepare a human recombinant FAP standard curve.
On the day of the assay, plasma was diluted (1:2) to 20 μL volume in buffer (PBS, 0.1% BSA) and 7.5 μL was transferred to the assay plate (384-well black, fluotrack PS, Greiner 781076). Ala-Pro-AMC (stock solution in 10 mM DMSO) was diluted in buffer (PBS, 0.1% BSA) to 150 μM concentration (180 μL stock solution to 12 mL buffer) and 7.5 μL added to the assay plate followed by a pipetting mix. The plates were read on a Beckman Paradigm reader with excitation 360 nm and emission 465 nm. Fluorescence measurements were performed with kinetic read every 5 minutes for 60 minutes at room temperature. As noted above, FAP cleaves Ala-Pro-AMC to release free AMC which is measured as a fluorescent signal.
The in vivo potency IC50 of each test compound was then estimated by relating the plasma exposure C of the compound to target engagement E in plasma using the following equation:
where E0 is the FAP baseline in plasma prior to dosing and Imax is the maximum effect of the compound. Data from each target engagement experiment were considered separately and therefore slightly different estimates of FAP baseline for each compound were obtained. […] The parameter estimation was done in Phoenix WinNonlin Certara build 8.1.0.3530 with the algorithm ‘Naïve pooled’ as parameter estimation method.

[4] = Metabolic stability in human liver microsomes (HLM); conditions: human
Description: Metabolic stability in HLM was measured as described in J Comput Aided Mol Des 2015, 29, 795.

FAP [5] = target: T1, FAP (Homo sapiens (Human), UniProt Q12884); test: FAP plasma inhibition assay, human plasma; type: biochemical; conditions: human plasma diluted 1:40, Ala-Pro-AMC 75 μM
Description: as §1
Target sequence in this assay (Q12884 24-760): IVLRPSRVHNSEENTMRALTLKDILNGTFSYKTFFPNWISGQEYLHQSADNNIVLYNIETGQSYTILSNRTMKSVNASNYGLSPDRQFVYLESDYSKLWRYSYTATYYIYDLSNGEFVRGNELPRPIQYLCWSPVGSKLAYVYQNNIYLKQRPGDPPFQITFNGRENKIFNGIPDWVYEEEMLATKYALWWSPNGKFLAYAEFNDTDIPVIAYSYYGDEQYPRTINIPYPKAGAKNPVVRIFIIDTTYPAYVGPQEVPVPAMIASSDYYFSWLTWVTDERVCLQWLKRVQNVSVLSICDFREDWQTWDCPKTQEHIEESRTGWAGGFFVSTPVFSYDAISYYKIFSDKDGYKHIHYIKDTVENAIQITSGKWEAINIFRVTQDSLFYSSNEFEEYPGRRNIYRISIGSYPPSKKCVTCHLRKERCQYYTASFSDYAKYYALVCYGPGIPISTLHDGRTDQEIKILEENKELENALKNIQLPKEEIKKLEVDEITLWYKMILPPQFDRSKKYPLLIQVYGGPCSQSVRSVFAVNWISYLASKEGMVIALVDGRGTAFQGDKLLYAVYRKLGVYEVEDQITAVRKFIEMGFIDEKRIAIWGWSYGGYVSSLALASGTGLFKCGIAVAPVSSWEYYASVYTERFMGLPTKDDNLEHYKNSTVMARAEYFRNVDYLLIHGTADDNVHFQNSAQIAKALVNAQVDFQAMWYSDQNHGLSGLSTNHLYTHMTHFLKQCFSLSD

[6] = Metabolic stability in human hepatocytes (hHep); type: in vitro ADME; conditions: n = 1 or geometric mean of n = 2
Kinetic solubility = conditions: kinetic from dmso stock
Description: Kinetic solubility was measured as described in Comput Aided Mol Des 2015, 29, 795.

Caco-2 cell permeability = conditions: human
Description: Caco-2 cell permeability was measured as described in Mol Pharm 2017, 14, 1601.

FAP [7] = target: T1, FAP; test: hFAP inhibition assay; type: biochemical; conditions: hFAP […], Ala-Pro-AMC 20 μM; n = 1 or geometric mean n = 2-3
Procedure, shortened: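 Compounds (10-point, 3-fold dilutions from 50 μM top) were preincubated 15 min at rt in the dark with 0.48 nM hFAP in pH 7.4 Tris/NaCl/Chaps buffer. Reaction was started with substrate (40 μM solution) and ran 30 min at rt. Read by fluorescence (340/460 nm); IC50 from one-site fit.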
Target sequence in this assay (Q12884 38-760): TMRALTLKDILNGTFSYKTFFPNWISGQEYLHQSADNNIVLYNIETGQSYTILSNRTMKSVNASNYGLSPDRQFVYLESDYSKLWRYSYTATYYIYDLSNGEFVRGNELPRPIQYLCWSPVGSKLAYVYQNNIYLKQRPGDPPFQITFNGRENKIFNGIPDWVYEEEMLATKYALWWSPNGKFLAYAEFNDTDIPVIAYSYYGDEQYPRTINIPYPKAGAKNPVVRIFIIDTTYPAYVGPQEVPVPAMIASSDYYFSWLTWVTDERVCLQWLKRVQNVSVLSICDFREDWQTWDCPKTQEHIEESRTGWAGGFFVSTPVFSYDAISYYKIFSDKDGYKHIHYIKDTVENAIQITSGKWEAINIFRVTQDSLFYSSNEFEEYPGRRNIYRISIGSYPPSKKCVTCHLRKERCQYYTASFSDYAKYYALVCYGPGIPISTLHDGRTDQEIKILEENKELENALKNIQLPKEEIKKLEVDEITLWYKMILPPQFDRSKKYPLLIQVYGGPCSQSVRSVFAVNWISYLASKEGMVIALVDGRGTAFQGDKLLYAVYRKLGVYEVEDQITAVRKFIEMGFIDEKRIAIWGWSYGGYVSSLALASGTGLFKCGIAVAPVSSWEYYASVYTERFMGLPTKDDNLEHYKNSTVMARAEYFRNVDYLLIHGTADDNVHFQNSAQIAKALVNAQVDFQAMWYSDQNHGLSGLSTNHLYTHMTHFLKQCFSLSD

[8] = Metabolic stability in rat hepatocytes (rHep); conditions: n = 1 or geometric mean of n = 2-3
[9] = target: human Fibroblast activation protein alpha (hFAP) (Homo sapiens (Human), UniProt Q12884); test: hFAP inhibition assay (tight binders); type: biochemical; conditions: Ala-Pro-AMC 20 μM, n = 1 or geometric mean n = 2-6; further: hFAP 2.4 pM
Description: The plates were read on a PHERAstar® reader with excitation 340 nm and emission 460 nm. Data were analyzed in Genedata Screener®. IC50 values were determined by plotting % inhibition versus log compound concentration and using a one site dose response model.

[10] = target: human dipeptidylpeptidase 7 (hDPP7) (Homo sapiens (Human), UniProt Q9UHL4); test: hDPP7 inhibition assay; type: biochemical; conditions: hDPP7 15 nM, Ala-Pro-amino-methylcoumarin 5 μM, n = 1
Description: Compounds were tested in a biochemical inhibition assay using human dipeptidylpeptidase 7 (hDPP7) enzyme at 15 nM FAC (BPS Bioscience, #80070) and the substrate Ala-Pro-amino-methylcoumarin (BPS Bioscience, #80305) at 5 μM FAC. The enzymatic reactions were conducted in duplicate at rt for 30 min in 50 μL DPP assay buffer (BPS Bioscience, #80300). Compound solutions (in DMSO) at 10 CR, 3 fold dilution series were prepared in assay buffer ten-fold higher than the final concentration, and 5 μL of the dilution was added to a 50 μL reaction so that the highest compound concentration was 100 μM FAC and the concentration of DMSO was 1% in all wells. The plates were read on a Tecan Infinite M1000 microplate reader with excitation 340 nm and emission 460 nm. Data were analyzed in Graph Pad Prism. IC50 values were determined by plotting % inhibition versus log compound concentration and using a one site dose response model. Raw data signals were normalized using 1% DMSO as 0% control and no enzyme as 100% inhibitor control.

[11] = HLM CLint, n = 1 or average of n = 2-3
[12] = Solubility, kinetic solubility, n = 1 or average of n = 2-3

Sequence of hFAP (M39-A757) (Q12884 39-757): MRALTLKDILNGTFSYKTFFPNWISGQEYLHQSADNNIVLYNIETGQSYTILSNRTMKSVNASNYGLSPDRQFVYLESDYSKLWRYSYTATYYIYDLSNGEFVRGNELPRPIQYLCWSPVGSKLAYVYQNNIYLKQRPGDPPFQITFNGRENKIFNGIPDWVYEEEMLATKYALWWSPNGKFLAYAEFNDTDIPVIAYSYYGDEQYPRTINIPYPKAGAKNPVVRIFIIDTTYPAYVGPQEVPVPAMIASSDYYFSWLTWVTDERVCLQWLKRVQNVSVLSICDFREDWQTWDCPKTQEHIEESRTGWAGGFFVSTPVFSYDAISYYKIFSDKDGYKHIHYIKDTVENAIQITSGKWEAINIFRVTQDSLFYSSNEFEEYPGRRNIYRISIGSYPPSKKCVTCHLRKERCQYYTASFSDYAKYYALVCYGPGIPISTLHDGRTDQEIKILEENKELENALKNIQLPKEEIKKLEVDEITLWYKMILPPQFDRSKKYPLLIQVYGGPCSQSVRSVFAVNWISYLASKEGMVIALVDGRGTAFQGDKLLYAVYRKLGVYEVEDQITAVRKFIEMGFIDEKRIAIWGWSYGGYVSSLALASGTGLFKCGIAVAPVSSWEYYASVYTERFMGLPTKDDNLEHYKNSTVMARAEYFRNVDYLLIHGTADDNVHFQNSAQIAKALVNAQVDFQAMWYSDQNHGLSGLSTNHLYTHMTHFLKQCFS
Sequence of Prolyl endopeptidase, Prolyl Oligopeptidase (hPREP) (P48147 whole entry): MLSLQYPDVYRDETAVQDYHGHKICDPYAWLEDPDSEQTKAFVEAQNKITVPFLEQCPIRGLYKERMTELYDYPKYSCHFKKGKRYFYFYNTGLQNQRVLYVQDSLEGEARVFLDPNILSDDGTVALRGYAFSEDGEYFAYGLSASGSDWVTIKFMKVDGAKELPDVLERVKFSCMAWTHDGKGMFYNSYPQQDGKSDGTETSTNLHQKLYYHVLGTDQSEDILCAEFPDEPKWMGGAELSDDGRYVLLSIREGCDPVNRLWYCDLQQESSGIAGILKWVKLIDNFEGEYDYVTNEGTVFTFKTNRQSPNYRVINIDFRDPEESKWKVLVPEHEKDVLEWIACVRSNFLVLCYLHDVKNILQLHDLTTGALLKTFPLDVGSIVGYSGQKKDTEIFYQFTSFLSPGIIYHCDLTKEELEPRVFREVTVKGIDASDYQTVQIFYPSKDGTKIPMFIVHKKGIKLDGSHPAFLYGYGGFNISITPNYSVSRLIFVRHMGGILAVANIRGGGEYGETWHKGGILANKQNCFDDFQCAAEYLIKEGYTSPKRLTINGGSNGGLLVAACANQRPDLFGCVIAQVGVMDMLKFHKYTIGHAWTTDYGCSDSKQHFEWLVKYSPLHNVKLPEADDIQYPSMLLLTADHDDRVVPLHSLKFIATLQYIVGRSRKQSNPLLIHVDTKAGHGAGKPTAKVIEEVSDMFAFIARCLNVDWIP
Sequence of FAP (Mus musculus (Mouse), UniProt P97321) (P97321 24-761): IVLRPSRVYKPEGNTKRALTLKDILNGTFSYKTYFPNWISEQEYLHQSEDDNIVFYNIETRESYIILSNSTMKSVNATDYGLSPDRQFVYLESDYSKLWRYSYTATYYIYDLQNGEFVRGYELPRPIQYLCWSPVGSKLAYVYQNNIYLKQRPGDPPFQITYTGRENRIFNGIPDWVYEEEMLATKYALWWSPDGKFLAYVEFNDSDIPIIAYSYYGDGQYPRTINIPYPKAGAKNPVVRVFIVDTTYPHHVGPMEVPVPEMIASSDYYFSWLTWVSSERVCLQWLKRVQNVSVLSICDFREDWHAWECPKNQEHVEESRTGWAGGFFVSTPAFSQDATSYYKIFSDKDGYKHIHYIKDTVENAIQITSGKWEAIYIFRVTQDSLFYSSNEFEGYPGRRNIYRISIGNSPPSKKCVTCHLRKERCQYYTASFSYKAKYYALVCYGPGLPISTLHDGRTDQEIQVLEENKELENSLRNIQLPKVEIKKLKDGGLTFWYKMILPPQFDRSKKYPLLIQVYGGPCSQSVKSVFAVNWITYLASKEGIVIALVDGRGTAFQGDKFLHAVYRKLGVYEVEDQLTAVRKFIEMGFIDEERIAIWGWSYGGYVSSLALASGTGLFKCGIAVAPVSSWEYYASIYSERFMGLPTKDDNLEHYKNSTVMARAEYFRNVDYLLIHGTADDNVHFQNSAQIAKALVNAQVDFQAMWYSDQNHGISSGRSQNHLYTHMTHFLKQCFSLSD
Sequence of human Fibroblast activation protein alpha (hFAP) (Q12884 38-760): as the sequence (Q12884 38-760) above
Sequence of Fibroblast Activation Protein alpha (FAP) (P97321 24-761): as the sequence (P97321 24-761) above

hFAP Binding assay k(off) (hFAP (M39-A757)) [s⁻¹]	hFAP Binding assay k(on) (hFAP (M39-A757)) [M⁻¹ s⁻¹]	IC50 [1] [nM]	IC50 (FAP [2]) [nM]	IC50 [3] [nM]	microsomal CLint [4, 11] [µL/min/mg]	IC50 (FAP [5]) [nM]	Kd (hFAP (M39-A757)) [nM]	hHep CLint [6] [μL/min/1E6]	solubility (Kinetic solubility; [12]) [µM]	Papp (Caco-2 cell permeability) [×10⁻⁶ cm/s]	Papp A→B (Caco-2 cell permeability) [×10⁻⁶ cm/s]	Papp B→A (Caco-2 cell permeability) [×10⁻⁶ cm/s]	efflux ratio (Caco-2 cell permeability)	IC50 (FAP [7]) [nM]	rHep CLint [8] [μL/min/1E6]	IC50 [9] [nM]	IC50 [10] [nM]	SMILES	microsomal CLint [4] [µL/min/mg]	solubility (Kinetic solubility) [µM]
0.00018	10000000	260	0.5	8.7	–	–	–	–	–	–	–	–	–	–	–	–	–	N#C[C@@H]1CSCN1C(=O)CNC(=O)c1ccnc2ccc(-c3cnn(C4CC4)c3)cc12 [Example 170, (R)—N-(2-(4-Cyanothiazolidin-3-yl)-2-oxoethyl)-6-(1-cyclopropyl-1H-pyrazol-4-yl)quinoline-4-carboxamide]	–	–
–	–	–	–	–	–	–	–	–	–	–	–	–	–	–	–	–	> 100000	N#C[C@@H]1CSCN1C(=O)CNC(=O)c1ccnc2ccc(N3CCC4(CCCC4)OC3=O)cc12 [Example 111, (R)—N-(2-(4-cyanothiazolidin-3-yl)-2-oxoethyl)-6-(7-oxo-6-oxa-8-azaspiro[4.5]decan-8-yl)quinoline-4-carboxamide]	–	–
0.00096	6200000	440	–	1.4	18	–	0.16	–	26 (≈ 11.8 µg/mL)	–	–	–	–	0.22	8.8	0.057	–	N#C[C@@H]1CSCN1C(=O)CNC(=O)c1ccnc2ccc(-c3ccc(C(F)F)nc3)cc12 [Example 169, (R)—N-(2-(4-cyanothiazolidin-3-yl)-2-oxoethyl)-6-(6-(difluoromethyl)pyridin-3-yl)quinoline-4-carboxamide]	–	–
0.000014	950000	1100	0.6	–	< 3	0.2	0.015	<1	930 (≈ 432 µg/mL)	0.1	0.25	0.78	3.1	0.4	<1	0.22	–	CC(=O)N1CC2(C1)CN(c1ccc3nccc(C(=O)NCC(=O)N4CSC[C@H]4C#N)c3c1)C2 [Example 184, (R)-6-(6-Acetyl-2,6-diazaspiro[3.3]heptan-2-yl)-N-(2-(4-cyanothiazolidin-3-yl)-2-oxoethyl)quinoline-4-carboxamide]	–	–

The next lines start with the compound.

SMILES	hFAP Binding assay k(off) (hFAP (M39-A757)) [s⁻¹]	hFAP Binding assay k(on) (hFAP (M39-A757)) [M⁻¹ s⁻¹]	IC50 [1] [nM]	IC50 (FAP [2]) [nM]	IC50 [3] [nM]	microsomal CLint [4, 11] [µL/min/mg]	IC50 (FAP [5]) [nM]	Kd (hFAP (M39-A757)) [nM]	hHep CLint [6] [μL/min/1E6]	solubility (Kinetic solubility; [12]) [µM]	Papp (Caco-2 cell permeability) [×10⁻⁶ cm/s]	Papp A→B (Caco-2 cell permeability) [×10⁻⁶ cm/s]	Papp B→A (Caco-2 cell permeability) [×10⁻⁶ cm/s]	efflux ratio (Caco-2 cell permeability)	IC50 (FAP [7]) [nM]	rHep CLint [8] [μL/min/1E6]	IC50 [9] [nM]	IC50 [10] [nM]	microsomal CLint [4] [µL/min/mg]	solubility (Kinetic solubility) [µM]
CC1(C)CN(c2ccc3nccc(C(=O)NCC(=O)N4CSC[C@H]4C#N)c3c2)CCO1 [Example 88, (R)—N-(2-(4-Cyanothiazolidin-3-yl)-2-oxoethyl)-6-(2,2-dimethyl-morpholino)quinoline-4-carboxamide]	0.00034	4200000	1200	0.3	–	22	0.2	0.082	<1	> 980	13	1.3	29	23	0.31	8.6	0.074	–	–	–
N#C[C@@H]1CSCN1C(=O)CNC(=O)c1ccnc2ccc(N3C4CCC3COC4)cc12 [Example 98, 6-(3-Oxa-8-azabicyclo[3.2.1]octan-8-yl)-N-(2-((R)-4-cyanothiazolidin-3-yl)-2-oxoethyl)quinoline-4-carboxamide]	0.000015	1600000	790	0.4	–	26	0.2	0.0088	1.8	> 1000	8.6	0.71	18	25	0.27	13	0.11	–	–	–
N#C[C@@H]1CSCN1C(=O)CNC(=O)c1ccnc2ccc(N3CCC4(CCCCC4)OC3=O)cc12 [Example 110, (R)—N-(2-(4-cyanothiazolidin-3-yl)-2-oxoethyl)-6-(2-oxo-1-oxa-3-azaspiro[5.5]undecan-3-yl)quinoline-4-carboxamide]	–	–	–	–	–	–	–	–	–	–	–	–	–	–	–	3.3	–	> 100000	39	950 (≈ 469 µg/mL)
N#C[C@@H]1CSCN1C(=O)CNC(=O)c1ccnc2ccc(N3CC(C(F)F)C3)cc12 [Example 28, (R)—N-(2-(4-Cyanothiazolidin-3-yl)-2-oxoethyl)-6-(3-(difluoromethyl)-azetidin-1-yl)quinoline-4-carboxamide]	0.00011	1100000	580	0.5	–	< 3	0.2	0.11	2.6	73 (≈ 31.5 µg/mL)	21	1.6	20	12	0.26	13	0.1	–	–	–
COC1CCN(c2ccc3nccc(C(=O)NCC(=O)N4CSC[C@H]4C#N)c3c2)CC1 [Example 8, (R)—N-(2-(4-Cyanothiazolidin-3-yl)-2-oxoethyl)-6-(4-methoxypiperidin-1-yl)quinoline-4-carboxamide]	–	–	–	0.2	–	–	–	–	–	–	–	–	–	–	–	–	–	> 100000	–	–
N#C[C@@H]1CSCN1C(=O)CNC(=O)c1ccnc2ccc(N3C[C@@H](F)[C@@H](F)C3)cc12 [Example 50, N-(2-((R)-4-Cyanothiazolidin-3-yl)-2-oxoethyl)-6-((3R,4S)-3,4-difluoropyrrolidin-1-yl)quinoline-4-carboxamide]	–	–	540	0.5	–	13	0.3	0.071	1.7	33 (≈ 14.2 µg/mL)	–	0.83	27	32	0.34	20	0.069	–	–	–
N#C[C@@H]1CSCN1C(=O)CNC(=O)c1ccnc2ccc(N3CC4(COC4)C3)cc12 [Example 166, (R)—N-(2-(4-Cyanothiazolidin-3-yl)-2-oxoethyl)-6-(2-oxa-6-azaspiro[3.3]heptan-6-yl)quinoline-4-carboxamide]	0.000049	2200000	1700	0.6	–	–	0.3	0.03	<1	–	2	0.56	13	24	0.34	<1	0.22	–	< 3	> 910

— patent US20230312550A1, “N-(2-(4-CYANOTHIAZOLIDIN-3-YL)-2-OXOETHYL)-QUINOLINE-4-CARBOXAMIDES” (AstraZeneca AB, priority 2020, published 2023)
